# Values of other authors as cited in patent US10427959B2, “Method and system for the autonomous self-limiting generation of chlorine dioxide” (TRUOX, INC., priority 2016, dated 2019).
# Like-named read-outs stand apart in the source and are kept apart here.
# Conditions: saturated aqueous solution
solubility (at 20° C.),SMILES,solubility (at 25° C.)
,"CC1(C)C(=O)N(Cl)C(=O)N1Br [BCDMH, 1,3-bromo-chloro-5,5-dimethylhydantoin]",0.2 wt %
0.1 wt %,"CC1(C)C(=O)N(Br)C(=O)N1Br [DBDMH, 1,3-dibromo-5,5-dimethylhydantoin]",
